Experimental data reported in US7030267B2, “Cycloproply β-amino acid derivatives” (Warner-Lambert Company, LLC, priority 2003, dated 2006).

Row | melting point | SMILES
1 | 254 to 256 °C | CC1(C)CC1(CN)C(=O)O (stereo not shown)
2 | 255 to 257 °C | CCC(CC)C1CC1(CN)C(=O)O (stereo not shown)
3 | 270 °C (dec.) | NCC1(C(=O)O)CC1C1CCCCC1 (stereo not shown)
4 | 231 to 235 °C (dec.) | NCC1(C(=O)O)CC12CCCC2 (stereo not shown)
5 | 245 to 246 °C | CC(C)C1CC1(CN)C(=O)O.Cl (stereo not shown)
6 | 255 to 257 °C | CCCC1(CCC)CC1(CN)C(=O)O (stereo not shown)
7 | > 250 °C (dec.) | Cl.NCC1(C(=O)O)CC12CCCCC2 (stereo not shown) [Example 1, 1-AMINOMETHYL-SPIRO[2.5]OCTANE-1-CARBOXYLIC ACID HYDROCHLORIDE]
8 | > 220 °C (dec.) | CC(C)CC1CC1(CN)C(=O)O.Cl (stereo not shown) [Example 6, 1-AMINOMETHYL-2-ISOBUTYL-CYCLOPROPANECARBOXYLIC ACID HYDROCHLORIDE]
9 | 240 to 242 °C | Cl.NCC1(C(=O)O)CC12CCCCC2 (stereo not shown) [Example 14]
10 | 254 to 255 °C | CC(C)CC1CC1(CN)C(=O)O.Cl (stereo not shown) [Example 15]
